Measurements taken from US20240327469A1, “FUNCTIONALISED POLYPEPTIDES, NANOPARTICLES AND USES THEREOF” (priority 2021, published 2024).
Counter-ions that a name gives are not always drawn.

Tests used:
MCF-7 = experiment: In vitro cytotoxicity (alamarBlue); assay type: cell-based; details: Homo sapiens, MCF7; MCF-7, 48 h
Procedure: (§1) Doxorubicin hydrochloride (DOX) was used as the positive control. For the MCF-7 and MCF-7/ADR, the initial concentration of DOX used was 10 μg/mL and 100 μg/mL, respectively.

MCF-7/ADR = experiment: In vitro cytotoxicity (alamarBlue); assay type: cell-based, human
Procedure: as §1

MCF-7 cells [1] = experiment: Inhibition of cell migration (wound scratch assay); assay type: cell-based, human; details: 24 h at respective IC50
Procedure: MCF-7 cells (8×10^5/well) were seeded in 6-well plates and incubated overnight for cell adhesion. To create a scratch, a 200 μL pipet tip was used to scrape a straight line through the cell layer. The old media was removed and washed with PBS, and the cells observed under a microscope to acquire images of the original scratch. […] After that, the scratches were observed and imaged using a microscope (Leica, Germany).

MCF-7 cells [2] = experiment: Cellular morphology staining; assay type: cell-based, human; details: MCF-7, 24 h; PLL-Gua and Gua-NPs 25 μg/mL, DOX 5.8 μg/mL
Procedure: (§2) MCF-7 and MCF-7/ADR cells were seeded at a density of 1000 cells/well in 50 μL medium, in a 384-well plate (PerkinElmer View Plate-384 Black). […] Treatment was performed at final concentrations of 25 μg/mL for PLL-Gua and Gua-NPs (on PLL-Gua basis) and 5.8 μg/mL for DOX, with a final volume of 40 μL per well. […] Subsequently, mitochondria were stained with Mito Tracker Deep Red solution in medium, with a final concentration of 100 nM. […] To fix the cells, 20 μL of 16% formaldehyde in PBS were added to each well (final concentration: 4%) and incubated in the dark at room temperature for 20 min. The cells were washed two times with 70 μL of Hanks' balanced salt solution (HBSS). […] The cells were incubated in the dark at room temperature for 30 min. Then, the cells were washed three times with 70 μL HBSS. The HBSS was not aspirated after the final washing step. The plates were sealed and centrifuged for 1 min at 500 rpm. The plate was then imaged using an Opera Phenix high content screening microscope (PerkinElmer) in 4 channels (Ex405/Em456; Ex488/Em522; Ex561/Em599; Ex640/Em706) with 9 sites per well and 63× magnification (binning 2).

MCF-7/ADR cells = experiment: Cellular morphology staining; assay type: cell-based, human; details: 24 h, PLL-Gua and Gua-NPs 25 μg/mL, DOX 5.8 μg/mL
Procedure: as §2

Structure (SMILES): COc1cccc2c1C(=O)c1c(O)c3c(c(O)c1C2=O)C[C@@](O)(C(=O)CO)C[C@@H]3O[C@H]1C[C@H](N)[C@H](O)[C@H](C)O1 [DOX, Doxorubicin hydrochloride]
- IC50 (MCF-7): 0.13 µg/mL
- difference of IC50 value, MCF-7/ADR vs MCF-7 (MCF-7/ADR): 769 fold
- MCF-7 cell migration (MCF-7 cells [1]): reduced wound gap
- cellular morphology (MCF-7 cells [2]): drastic decrease in the staining of DNA and RNA
- cellular morphology (MCF-7/ADR cells): did not induce such changes
